Reference: US10288604B2, “Method for imaging cell using fluorescence-labeled sugar derivative having coumarin derivative bound thereto, and imaging agent” (HIROSAKI UNIVERSITY, priority 2012, dated 2019)

Key:
[1] = system: neurons acutely dissociated from mouse midbrain substantia nigra pars reticulata; assay: Application of fluorescent sugar derivatives to acutely dissociated normal neurons (confocal imaging of uptake); assay type: cell-based
Description: This was conducted according to a method described in WO 2010/16587.
Living neurons were acutely dissociated from mouse midbrain substantia nigra pars reticulata, and to which a mixed solution containing 100 μM of 2-PBDG and 20 μM of 2-TRLG was administered at 37° C. for 5 minutes. FIGS. 1A to C represent confocal microscopic images taken immediately before this. A is a fluorescence image in blue wavelength region (Blue channel, wavelength range: 415-580 nm). The position of cells is recognized by autofluorescence. The fluorescence signal intensity is represented by pseudocolor. B is a fluorescence image in red wavelength region (Red channel, 580-740 nm). A and B were obtained both by simultaneous excitation using 405 nm Blue diode laser at an intensity of 60%, wherein photomultipliers (PMT) 1 and 2 were used respectively, and the detection sensitivity of PMT2 was raised higher than PMT1 so that the presence or absence of invasion of 2-TRLG can be detected in a sensitive manner. C is a view in which the bright field image is overlaid on the fluorescence images of A and B.
An experiment was conducted in the same manner as in Example 2.
FIGS. 2A to C represent confocal microscopic images immediately before administration of a mixed solution containing 100 μM of 2-PBLG and 20 μM of 2-TRLG at 37° C. to acutely dissociated neurons of mouse midbrain substantia nigra pars reticulata for 5 minutes.
FIG. 3 represents confocal microscopic images before and after administration of a mixed solution containing 100 μM of 2-HCDG and 20 μM of 2-TRLG at 37° C. for 3 minutes to neurons acutely dissociated from mouse midbrain substantia nigra pars reticulata. A and B are fluorescence images acquired before administration in Blue channel (415-580 nm) and Red channel (580-740 nm), respectively. The excitation wavelength is 405 nm. C is an image of differential interference (Differential Interference contrast, DIC). D is an overlay of the above-described images. E to H are the same as A to D, excepting that E to H are images acquired 4 minutes after initiation of washout of the fluorescence tracer solution after administration of the 2-HCDG+2-TRLG fluorescence tracer solution at 37° C. for 3 minutes. […] Since invasion of 2-TRLG into a cell is not observed, the plasma membrane of the neuron is thought to be maintained intactly.
Since the optimal excitation wavelength was as very low as 320 nm in this experiment, an image was acquired by Retiga-2000R CCD camera manufactured by Q-imaging via a custom-order filter constituted of an excitation filter (320 nm) (half width: 40 nm), a fluorescence filter (435 nm) (half width: 40 nm) and a dichroic mirror (409 nm), by a xenon lamp, using Nikon Ti-E real time deconvolution microscope.

[2] = system: tumor cell cluster composed of mouse insulinoma cells (MIN6); assay: Imaging of tumor cell cluster composed of MIN6 cells (real time laser scanning confocal microscope); assay type: cell-based
Description: A culture solution prepared by suspending MIN6 cells at a proportion of 10×10^4 cells/mL was dropped in an amount of 10 μL on a glass cover slip, then, allowed to adhere to the glass surface, and 3 mL of the culture solution was added and cultured. The half quantity of the culture solution was changed every three days.
Cryopreserved MIN6 cells (cells donated from Professor Miyazaki Junichi of Osaka University and cultured 5 to 8 passages) were subjected to culture according to an ordinary method, and cultured 7 to 9 passages which were used in experiments. The half amount of the culture solution was changed every two days.
NaCl 120.0 mM, KCl 4.75 mM, KH2 PO4 1.19 mM, MgSO4.7H2O 1.19 mM, CaCl2.2H2O 1 mM, NaHCO3 5.02 mM, D-Glucose 5.6 mM, HEPES 10 mM (adjusted to pH 7.35 with 1M NaOH). For inhibiting entrance and elimination of fluorescently labeled glucose via a gap junction/hemichannel, 0.1 mM Carbenoxolone (SIGMA #C4790) was added. The HEPES solution for image acquisition was used as a solution for preparing a 2-PBLG solution and as a solution for preparing a 2-PBLG/2-TRLG solution and 2-PBLG/2-NBDLG/2-TRLG solution.
A glass cover slip wherein MIN6 cells had been cultured was transferred into a HEPES solution for image acquisition in a perfusion chamber set on a universal stage (Leica 11600234) on a confocal laser scanning microscope (TCS SP5 available from Leica), and adhered gently and tightly to the glass surface at the bottom of the chamber. […] Further, there is an excellent effect that in the space sandwiched by the metal guides, the perfusion solution flows smoothly as a laminar flow and quick solution exchange is possible.
A perfusion solution feeding system is equipped with one 60 mL cylinder for a control solution and five 10 mL cylinders for agent feeding, which can be switched as needed by a magnetic valve to allow perfusion. In experiments according to the present invention, a 5.6 mM glucose-containing HEPES solution for image acquisition was administered using the 60 mL cylinder and a mixed solution of 2-PBLG/2-NBDLG/2-TRLG, a mixed solution of 2-PBDG/2-TRLG, or a mixed solution of 2-PBLG/2-TRLG was administered using one of the five 10 mL cylinders. As described below, to avoid generation of bubbles in the perfusion chamber, both the solutions were heated beforehand, combined in one tube before being introduced into the perfusion chamber, the flow rate thereof being controlled by a flow rate controller, then, heated again by an inline heater and fed to the perfusion chamber on the confocal microscope.
A laser scan confocal microscope (manufactured by Leica, TCS-SP5 system, microscope body is DMI6000 CS trino electromotive inverted microscope) was used in conventional mode. Regarding laser used, a 405 nm diode laser was used for excitation of 2-PBLG and 2-PBDG, excitation of a mixed solution of 2-PBLG (or 2-PBDG) and 2-TRLG with a single light source, or live staining of nucleus by DAPI. The irradiation intensity was appropriately adjusted in accordance with the fluorescent pigment used so as to obtain sufficient observation intensity by an acoustic optical polarization element (Acoustic Optical Tunable Filter, AOTF). 2-NBDLG and 2-TRLG were excited by 488 nm Argon laser. The scan speed was 200 Hz or 400 Hz.
In fluorescence detection, a photomultiplier detector (PMT) 1 was used for detection of blue fluorescence by 2-PBDG or 2-PBLG and images were acquired in a wavelength detection range set at 415-580 nm in the case of detection of bicolor of 2-PBLG/2-TRLG and in a wavelength detection range set at 415-500 nm in the case of detection of tricolor of 2-PBLG/2-NBDLG/2-TRLG. For detection of green fluorescence by 2-NBDLG, PMT2 (called green channel, the same shall apply hereinafter) was used in a wavelength detection range of 500-580 nm. For detection of red fluorescence by 2-TRLG, PMT3 (called red channel, the same shall apply hereinafter) was used in a wavelength detection range of 580-740 nm. […]

[3] = mixed solution 100 μM 2-PBLG and 20 μM 2-TRLG

O=C(NC1C(O)OC(CO)[C@H](O)C1O)c1cc2cc(F)c(O)c(F)c2oc1=O (stereo partly drawn) [2-PBLG, 2-Deoxy-2-((6,8-difluoro-7-hydroxycoumarin-3-yl)carboxamido)-L-glucose]
intracellular fluorescence intensity in Blue channel as compared with that before administration ([1]; 100 μM with 20 μM 2-TRLG, 37° C., 5 minutes, image 4 minutes after initiation of washout): scarcely increased
persistence of intracellular blue fluorescence after washout ([1]; images 8 and 20 minutes after initiation of washout): recovered to the autofluorescence level
fluorescence of cells in the cell cluster 8 minutes after initiation of washout [2, 3]: scattered around the outer edge of the center of a cell cluster
fluorescence of cells in the cell cluster 12 minutes after initiation of washout [2, 3]: still multiple cells showing the strongly positive signal
fluorescence of cells in the cell cluster 2 minutes after initiation of washout ([2]; mixed solution 100 μM 2-PBLG and 20 μM 2-TRLG, administered 5 minutes, MIN6 cluster day 13): extremely intense blue fluorescence is emitted from some cells
fluorescence of cells in the cancer cell cluster 12 minutes after completion of administration ([2]; mixed solution 100 μM 2-PBLG, 100 μM 2-NBDLG, 20 μM 2-TRLG): emit blue fluorescence by 2-PBLG continuously
fluorescence of cells in the cancer cell cluster 8 minutes after completion of administration ([2]; mixed solution 100 μM 2-PBLG, 100 μM 2-NBDLG, 20 μM 2-TRLG, MIN6 cluster day 13): intense blue fluorescence by 2-PBLG is maintained continuously
